Measured values published in US20230000924A1, “COMPOSITIONS AND METHODS FOR GENERATION OF SINOATRIAL NODE-LIKE CELLS AND THEIR USE IN DRUG DISCOVERY” (Cornell University, priority 2019, published 2023).

Tested on: GATA5-induced progenitors
Assay: qRT-PCR-based chemical screen in GATA5-induced murine ESC progenitors
Type: cell-based
Description: FIG. 5. Optimization of the protocol for the derivation of SAN-like cells from hPSCs a, Schematic representation of the murine differentiation protocol and qRT-PCR analysis for the expression levels of TBX3, TBX18 and SHOX2 following induction of GATA4, GATA5 or GATA6 at day 4. Fold change was normalized to level using the iGATA6 line; b, Heatmap illustration of the qPCR results of transcription-screen for TBX3, TBX18 and SHOX2; hit compounds (EGF inhibitors) from plates 1 and 3 are circled. c, The activity of tyrphostin AG490 and 2NP on the expression of TBX3, TBX18 and SHOX2; d, The activity of cucurbitacin (STAT3 inhibitor) on expression of MYH6; e, qRT-PCR analysis for TBX3, TBX18 and SHOX2 in S1+RA (left) and S1+cucurbitacin (right); f, The percentage of SHOX2:GFP^+ cells treated with different EGF inhibitors (left) and dose-response curve for effects of Tyrphostin AG490 on the percentage of SHOX2:GFP^+ cells. Fold changes were normalized to DMSO-treated group unless stated otherwise.
We developed a protocol that maximizes the generation of pluripotent stem cell-derived SAN pacemaker lineages (PSC-SAN). […] We therefore applied GATA5-induced progenitors to an unbiased qRT-PCR-based chemical screen using annotated pathway modulating compounds to identify modulators that further enhance the expression of TTS and specification toward pacemaker lineage. […]

cucurbitacin
expression levels of nodal and atrial structural marker MYH6: enhances the expression levels
